Test results from the CheMixHub viscosity set.
± gives the uncertainty stated by the source.

Assay: xn = mol fraction of the nth substance listed

Nc1ccccc1Cl + CCC(C)O
viscosity [mPa·s], 101 kPa
Details	x1 = 0.0896	x1 = 0.1798	x1 = 0.2798	x1 = 0.3912	x1 = 0.4951	x1 = 0.5894	x1 = 0.6812	x1 = 0.7958	x1 = 0.8925
303.15 K	2.78 ± 0.6	2.94 ± 0.64	3.11 ± 0.68	3.28 ± 0.71	3.41 ± 0.74	3.51 ± 0.76	3.6 ± 0.78	3.7 ± 0.8	3.76 ± 0.82
308.15 K	2.36 ± 0.51	2.53 ± 0.55	2.69 ± 0.58	2.85 ± 0.62	2.99 ± 0.65	3.1 ± 0.67	3.19 ± 0.69	3.29 ± 0.72	3.36 ± 0.73
313.15 K	2.04 ± 0.44	2.21 ± 0.48	2.37 ± 0.52	2.53 ± 0.55	2.66 ± 0.58	2.77 ± 0.6	2.86 ± 0.62	2.96 ± 0.64	3.03 ± 0.66
318.15 K	1.77 ± 0.38	1.94 ± 0.42	2.09 ± 0.45	2.24 ± 0.49	2.37 ± 0.52	2.47 ± 0.54	2.57 ± 0.56	2.68 ± 0.58	2.74 ± 0.6

Nc1ccccc1Cl + COCCO
303.15 K, 101 kPa
Details	viscosity [mPa·s]
x1 = 0.093	2.184 ± 0.56
x1 = 0.157	2.388 ± 0.61
x1 = 0.2242	2.597 ± 0.66
x1 = 0.3168	2.811 ± 0.72
x1 = 0.415	3.024 ± 0.77
x1 = 0.5093	3.223 ± 0.82
x1 = 0.6253	3.414 ± 0.87
x1 = 0.7713	3.581 ± 0.91
x1 = 0.8914	3.711 ± 0.95

Cc1cccc(C)c1 + CCCO
viscosity [mPa·s], 100 kPa
Details	298.15 K	308.15 K
x2 = 0.0641	0.5986 ± 0.072	0.5469 ± 0.066
x2 = 0.125	0.604 ± 0.073	0.5561 ± 0.067
x2 = 0.2247	0.6335 ± 0.076	0.5935 ± 0.071
x2 = 0.3538	0.694 ± 0.083	0.633 ± 0.076
x2 = 0.4693	0.779 ± 0.094	0.6938 ± 0.083
x2 = 0.5733	0.888 ± 0.11	0.7826 ± 0.094
x2 = 0.6675	1.006 ± 0.12	0.8918 ± 0.11
x2 = 0.7531	1.144 ± 0.14	0.964 ± 0.12
x2 = 0.8313	1.316 ± 0.16	1.102 ± 0.13
x2 = 0.903	1.509 ± 0.18	1.277 ± 0.15
x2 = 0.969	1.796 ± 0.22	1.464 ± 0.18

Cc1ccccc1N + ClC(Cl)(Cl)Cl
viscosity [mPa·s], 100 kPa
Details	x2 = 0.0901	x2 = 0.1916	x2 = 0.2917	x2 = 0.3903	x2 = 0.4988	x2 = 0.6089	x2 = 0.6981	x2 = 0.7941	x2 = 0.8847
298.15 K	3.473 ± 0.074	3.194 ± 0.068	2.917 ± 0.062	2.642 ± 0.056	2.337 ± 0.05	2.026 ± 0.043	1.772 ± 0.038	1.497 ± 0.032	1.235 ± 0.026
303.15 K	3.049 ± 0.065	2.812 ± 0.06	2.575 ± 0.055	2.34 ± 0.05	2.079 ± 0.044	1.812 ± 0.039	1.593 ± 0.034	1.356 ± 0.029	1.13 ± 0.024
308.15 K	2.65 ± 0.057	2.452 ± 0.053	2.254 ± 0.048	2.056 ± 0.044	1.836 ± 0.039	1.611 ± 0.034	1.426 ± 0.03	1.224 ± 0.026	1.032 ± 0.022
313.15 K	2.34 ± 0.05	2.172 ± 0.047	2.003 ± 0.043	1.834 ± 0.039	1.646 ± 0.035	1.452 ± 0.031	1.292 ± 0.027	1.118 ± 0.024	0.951 ± 0.02
318.15 K	2.033 ± 0.044	1.895 ± 0.041	1.755 ± 0.038	1.616 ± 0.035	1.459 ± 0.031	1.296 ± 0.028	1.162 ± 0.025	1.016 ± 0.022	0.874 ± 0.019

CC(O)CC(C)(C)O (configuration not stated) + O=Cc1ccccc1
viscosity [mPa·s], 101 kPa
Details	x1 = 0.0921	x1 = 0.1829	x1 = 0.2762	x1 = 0.3752	x1 = 0.4712	x1 = 0.5787	x1 = 0.6736	x1 = 0.775	x1 = 0.8828
308.15 K	1.337 ± 0.13	1.484 ± 0.15	1.717 ± 0.17	2.062 ± 0.21	2.679 ± 0.27	3.484 ± 0.35	4.864 ± 0.49	7.155 ± 0.72	10.92 ± 1.1
318.15 K	1.004 ± 0.1	1.149 ± 0.12	1.368 ± 0.14	1.7 ± 0.17	2.157 ± 0.22	2.801 ± 0.28	3.804 ± 0.38	5.903 ± 0.59	9.45 ± 0.95

O=S(=O)(Cl)Cl + c1ccccc1
298.15 K, 101 kPa
Details	viscosity [mPa·s]
x1 = 0.176	0.6172 ± 0.016
x1 = 0.43	0.6463 ± 0.017
x1 = 0.699	0.6673 ± 0.017
x1 = 0.734	0.6691 ± 0.017
x1 = 0.845	0.6757 ± 0.017

Cc1cccc(C)c1 + CCCCO
308.15 K, 101 kPa
Details	viscosity [mPa·s]
x2 = 0.0525	0.471 ± 0.01
x2 = 0.1036	0.54 ± 0.011
x2 = 0.19	0.553 ± 0.012
x2 = 0.307	0.583 ± 0.012
x2 = 0.4171	0.631 ± 0.013
x2 = 0.5209	0.733 ± 0.015
x2 = 0.619	0.815 ± 0.017
x2 = 0.7117	0.947 ± 0.02
x2 = 0.7995	1.131 ± 0.024
x2 = 0.8828	1.323 ± 0.028
x2 = 0.9619	1.556 ± 0.032

O=S1(=O)CCCC1 + Cc1cccc(C)c1
viscosity [mPa·s], 101.3 kPa
Details	x2 = 0.1117	x2 = 0.2206	x2 = 0.3267	x2 = 0.4301	x2 = 0.531	x2 = 0.6294	x2 = 0.7254	x2 = 0.8191	x2 = 0.9106
303.15 K	6.231 ± 0.13	4.214 ± 0.095	2.961 ± 0.068	2.171 ± 0.051	1.65 ± 0.039	1.275 ± 0.031	1.007 ± 0.025	0.7887 ± 0.02	0.6551 ± 0.017
323.15 K	4.014 ± 0.09	2.798 ± 0.064	2.042 ± 0.048	1.543 ± 0.037	1.204 ± 0.029	0.9507 ± 0.024	0.7638 ± 0.02	0.6203 ± 0.017	0.5221 ± 0.015

O=S(=O)(Cl)Cl + C1CCCCC1
298.15 K, 101 kPa
Details	viscosity [mPa·s]
x1 = 0.321	0.7303
x1 = 0.647	0.677
x1 = 0.797	0.6695
